In publication PMC12566971, “Polyprenylated Acylphloroglucinols from Hypericum rochelii and Hypericum olympicum—Cytotoxic Effects on Non-Tumorigenic Cell Lines and Antibacterial Potential” (Pharmaceuticals, 2025):
Converted amounts (≈) assume the structure as drawn. Like-named read-outs stand apart in the source and are kept apart here.

Legend:
HT-22 and SH-SY5Y cells = settings: concentration where viability was restored to about 75%, ref [103]; read-out: Effective concentration 50 (EC50), neuroprotection; cited from earlier work
[1] = test system: Methicillin-Resistant S. aureus (MRSA); test: MIC and MBC evaluation (broth microdilution, agar plate assay); format: cell-based, Staphylococcus aureus
Protocol: (§1) The MIC and MBC assessment on the pathogenic bacteria and the candidate probiotic lactic acid bacteria was carried out by the broth microdilution assay (BMD) and the agar plate assay, respectively, as described in [4]. The metabolic (dehydrogenase) activity of the lactic acid bacteria was assessed as described in [4].
(§2) P. aeruginosa PAO1 ATCC 15692 was purchased from the American Type Cell Culture Collection (ATCC, Manassas, VA, USA). S. mutans DSM 20523 was bought from the German Collection of Microorganisms and Cell Cultures (DSMZ GmbH, Braunschweig, Germany). All other bacteria and strains were purchased as described in [4].

Enterococcus faecalis [2] = test: as above; format: cell-based
Protocol: as §1, §2

Staphylococcus aureus [3] = test: as above; format: cell-based; settings: for MBC: read-out: Minimal bactericidal concentration (MBC), Staphylococcus aureus; for MBC/MIC ratio, S. aureus: bactericidal if ≤ 4, bacteriostatic if > 4
Protocol: as §1, §2

HEPG2 = test: MTT assay for cytotoxicity; format: cell-based, human
Protocol: (§3) The MTT assay was performed according to Annex C, ISO 10993-5 [56] as in [116]. The panel of non-tumorigenic cell lines consisted of one murine (CCL-1 fibroblasts, which are recommended as a standard for cytotoxicity evaluation in Annex C of ISO 10993-5 [56]) and four human cell lines—HaCaT (immortalized epidermal keratinocytes), HGF (gingival fibroblasts), HEK-293 (embryonic cells from kidney epithelium), and HEPG2 (hepatoblastoma). Although technically a cancer cell line, HEPG2 is non-tumorigenic and retains many hepatocyte-related features in its proteome and a high degree of morphological and functional differentiation, also being a stage one hepatoblastoma.
(§4) CCL-1 was purchased from ATCC and HaCaT and HGF were bought from CLS Cell Lines Service (GmbH, Eppelheim, Germany). HEK-293 and HEPG2 were obtained from DSMZ. The cell culture medium for HaCaT and HEPG2 was Dulbecco’s Modified Eagle Medium (DMEM) with 4.5 g/L glucose (DMEM-HA). For HGF it was DMEM/F-12 (DMEM-12-A, a 1:1 mixture of DMEM and Ham’s F-12 medium). The cell medium for CCL-1 and HEK-293 was Eagle’s Minimum Essential Medium (MEM) (MEM-A). Ten percent heat-inactivated fetal bovine serum (FBS) was added to all media but to the one for the CCL-1 cells, to which 10% heat-inactivated horse serum was added. All media were supplemented with 2 mM L-glutamine and Penicillin/Streptomycin (Pen/Strep, 100×). The cell culture media, sera, and additives were from Capricorn Scientific (Düsseldorf, Germany).
(§5) GraphPad Prism software version 9 (GraphPad Software Inc., San Diego, CA, USA) was used to calculate the IC50 values from the MTT assays as in [116], as well as the MTC values, and the ELISA standard curves. The MTC values are, according to ISO 10993-5, the maximum concentration at which at least 70% of the cells are viable (nonlin fit, range).

HaCaT = test: MTT assay for cytotoxicity; format: cell-based, human
Protocol: as §3, §4, §5

CCL-1 = test: MTT assay for cytotoxicity; format: cell-based, murine
Protocol: as §3, §4, §5

[4] = test system: Human embryonic kidney-293 (HEK-293); test: MTT assay for cytotoxicity; format: cell-based
Protocol: as §3, §4, §5

[5] = test system: Human gingival fibroblasts (HGF); test: MTT assay for cytotoxicity; format: cell-based
Protocol: as §3, §4, §5

HEK-293 cells = test: Colony-forming unit assay; format: cell-based, human; settings: for Percentage of colonies, HEK-293: untreated control = 100%
Protocol: (§6) The CFU was also performed according to ISO 10993-5 [56]. Briefly, the cell lines were seeded at a concentration like for the MTT assay in 6-well plates, treated with the chosen agents and left for a 48 h exposure. Then, the cells were trypsinized, and pre-calculated 20 to 100 µL from the cell suspension was added to a sterile Roswell Park Memorial Institute (RPMI) medium (RPMI-A, Capricorn Scientific), containing 20% of the respective cell culture medium for each cell line but with a final concentration of FBS and L-glutamine of 40–42% and 0.8–1.2 mM, respectively, 0.2% NaHCO3 (S6297, Merck Sigma-Aldrich, Saint Louis, MI, USA), and 0.8% methylcellulose (M0512, Merck Sigma-Aldrich) for viscosity. The viscous cell solution was vortexed for 10 s and dispensed in an equal number of cells per well in 6-well plates (1.2 mL per well) in triplicate for each concentration of treatment. HaCaT and HEK-293 were seeded at a concentration of 2500 cells per mL, CCL-1 and HEPG2—2000 cells per mL, and HGF—1000 cells per mL. The plates were incubated for 6 to 10 days, and when the colonies reached 20 to 50 cells per colony, 100 µL MTT salt solution was added to each well. After half an hour, the stained colonies were counted manually using a microscope.

HaCaT cells = test: Colony-forming unit assay; format: cell-based, human; settings: for Colonies per well for HaCaT cells: mean of three wells; for Percentage of colonies, HaCaT: untreated control = 100%
Protocol: as §6

CCL-1 cells = test: Colony-forming unit assay; format: cell-based, murine; settings: for Percentage of colonies, CCL-1: untreated control = 100%
Protocol: as §6

Staphylococcus aureus [6] = settings: ref [4],[29]; cited from earlier work
[7] = test system: Methicillin-Resistant S. aureus (MRSA); settings: ref [4],[29]; cited from earlier work
Enterococcus faecalis [8] = settings: ref [4],[29]; cited from earlier work
Streptococcus pyogenes = settings: ref [4],[29]; cited from earlier work
[9] = test system: panel of cancer cell lines; set-up: method as in PMID 39454890; settings: ref [48]; read-out: IC50 against a panel of cancer cell lines; cited from earlier work
[10] = test system: Pseudomonas aeruginosa PAO1; test: MIC and MBC evaluation (broth microdilution, agar plate assay); format: cell-based; settings: Pseudomonas aeruginosa, PAO1
Protocol: as §1, §2

breast cancer cell line = test system: breast cancer cell line; set-up: method as in PMID 26865836; settings: 24 h, ref [93]; cited from earlier work
[11] = bactericidal if ≤ 4, bacteriostatic if > 4

COc1ccc(C(=O)CCc2c(OC)cc(O)cc2OC)cc1 [4-hydroxy-2,6,4′-trimethoxydihydrochalcone]
EC50 (HT-22 and SH-SY5Y cells): 1.48 µM

CNC(C)C1CCC(N)C(OC2C(N)CC(N)C(OC3OCC(C)(O)C(NC)C3O)C2O)O1 (stereo not drawn) [Gentamicin, reference compound]
MBC ([1]; Staphylococcus aureus, MRSA): 2.5 µg/mL (≈ 5.23 µM) | MBC/MIC ratio, MRSA [1, 11]: 20 | MBC (Enterococcus faecalis [2]; Enterococcus faecalis): 72 µg/mL (≈ 151 µM) | MBC/MIC ratio, E. faecalis (Enterococcus faecalis [2]; [11]): 9 | MBC (Staphylococcus aureus [3]; Staphylococcus aureus): 1.9 µg/mL | MBC/MIC ratio, S. aureus (Staphylococcus aureus [3]): 8 ^5

CC(C)=CCC[C@]1(C)[C@@H](CC=C(C)C)C[C@]2(C)C(=O)C(CC=C(C)C)=C(O)[C@@]1(C(=O)C(C)C)C2=O [Hyperpolyphyllirin/hyperibine J]
Minimal bactericidal concentration (MBC), Staphylococcus aureus (Staphylococcus aureus [3]): 94 µg/mL (≈ 195 µM) | MBC/MIC ratio, S. aureus (Staphylococcus aureus [3]): 47 | MBC (Staphylococcus aureus [3]): 194 µM | Maximum tolerated concentration (MTC), HEPG2 (HEPG2): 5.13 µg/mL | IC50, HEPG2 (HEPG2; MTT assay): 14.33 µg/mL (≈ 29.7 µM) | IC50 (HEPG2; converted to µM): 29.7 µM | Maximum tolerated concentration (MTC), HaCaT (HaCaT): 0.75 µg/mL | IC50, HaCaT (HaCaT; MTT assay): 2.29 µg/mL (≈ 4.74 µM) | IC50 (HaCaT; converted to µM): 4.74 µM | Maximum tolerated concentration (MTC), CCL-1 (CCL-1): 4.56 µg/mL | IC50, CCL-1 (CCL-1; MTT assay): 7.07 µg/mL (≈ 14.6 µM) | IC50 (CCL-1; converted to µM): 14.7 µM | Maximum tolerated concentration (MTC), HEK-293 [4]: 0.46 µg/mL | IC50, HEK-293 ([4]; MTT assay): 0.79 µg/mL (≈ 1.64 µM) | IC50 ([4]; converted to µM): 1.64 µM | Maximum tolerated concentration (MTC), HGF [5]: 10.47 µg/mL | IC50, HGF ([5]; MTT assay): 12.41 µg/mL (≈ 25.7 µM) | IC50 ([5]; converted to µM): 25.7 µM | Colonies per well for HEK-293 cells (HEK-293 cells; 1/2 × IC50, 48 h exposure): 110 | Percentage of colonies, HEK-293 (HEK-293 cells; 1/2 × IC50): 89% | Colonies per well for HEK-293 cells (HEK-293 cells; 2 × IC50, 48 h exposure): 67 | Percentage of colonies, HEK-293 (HEK-293 cells; 2 × IC50): 54% | Colonies per well for HEK-293 cells (HEK-293 cells; IC50, 48 h exposure): 91 | Percentage of colonies, HEK-293 (HEK-293 cells; IC50): 73% | Colonies per well for HaCaT cells (HaCaT cells; 1/2 × IC50, 48 h exposure): 143 | Percentage of colonies, HaCaT (HaCaT cells; 1/2 × IC50): 259% | Colonies per well for HaCaT cells (HaCaT cells; 2 × IC50, 48 h exposure): 58 | Percentage of colonies, HaCaT (HaCaT cells; 2 × IC50): 105% | Colonies per well for HaCaT cells (HaCaT cells; IC50, 48 h exposure): 133 | Percentage of colonies, HaCaT (HaCaT cells; IC50): 241% | Colonies per well for CCL-1 cells (CCL-1 cells; 1/2 × IC50, 48 h exposure): 162 | Percentage of colonies, CCL-1 (CCL-1 cells; 1/2 × IC50): 111% | Colonies per well for CCL-1 cells (CCL-1 cells; 2 × IC50, 48 h exposure): 113 | Percentage of colonies, CCL-1 (CCL-1 cells; 2 × IC50): 77% | Colonies per well for CCL-1 cells (CCL-1 cells; IC50, 48 h exposure): 116 | Percentage of colonies, CCL-1 (CCL-1 cells; IC50): 79% | MIC on bacteria, S. aureus (Staphylococcus aureus [6]): 2 µg/mL (≈ 4.14 µM) | MIC on bacteria, MRSA [7]: 8 µg/mL (≈ 16.6 µM) | MIC on bacteria, E. faecalis (Enterococcus faecalis [8]): 8 µg/mL (≈ 16.6 µM) | MIC on bacteria, S. pyogenes (Streptococcus pyogenes): 31 µg/mL (≈ 64.2 µM)

O=c1c(-c2c(O)cc(O)c3c(=O)cc(-c4ccc(O)cc4)oc23)c(-c2ccc(O)cc2)oc2cc(O)cc(O)c12 [I3-II8-biapigenin]
IC50 [9]: 107 to 198 µM

C[C@@H](O)[C@H]1C(=O)N2C(C(=O)O)=C(S[C@@H]3CN[C@H](C(=O)N(C)C)C3)[C@H](C)[C@H]12 [Meropenem, reference compound]
MBC [10]: 6.4 µg/mL (≈ 16.7 µM) | MIC [10]: 1.6 µg/mL (≈ 4.17 µM)

N.N.[Cl][Pt][Cl] [cisplatin]
IC50 for a breast cancer cell line (breast cancer cell line): 20 µg/mL
